Reference: patent publication USRE46856E1, “Substituted 2,3-dihydroimidazo[1,2-c]quinazoline derivatives useful for treating hyper-proliferative disorders and diseases associated with angiogenesis” (Bayer Intellectual Property GmbH, priority 2006, dated 2018)

System: IGF-1 induced AKT phosphorylation in A549 cells
Assay: IGF-1 induced AKT phosphorylation assay (A549 cell assay)
Assay type: cell-based
Settings: Homo sapiens, A549, read-out: average IC50 in the A549 cell assay
Text: [Determination of IC50 Values of Compounds in Cell Based Assays of PI3K Activity] 96-well collagen treated clear bottom/black sided Costar plates were purchased from CORNING LIFE SCIENCES (Corning, N.Y.; at.#3904). Gibco RPMI medium (Cat.#11875), Biosource anti-phospho-AKT([…]) antibody (Cat.#44-621G) and recombinant IGF-1 (Cat.#PHG0074) were purchased from INVITROGEN (Carlsbad, Calif.). The secondary donkey anti-rabbit IgG horse radish peroxidase conjugate (Cat. #N[…]) and ECL chemiluminesence reagent (Cat.#RPN2209) were purchased from […] (Buckinghamshire, UK). Cell culture tested bovine serum albumin solution (35% in DPBS; Cat.#A7979) and all other chemicals were purchased from SIGMA (St. Louis, Mo.). The Wallac Victor2 1420 Multilabel HTS Counter was purchased from […] (Wellesley, Mass.) […] All wells (except no IGF-1 controls) were then treated with 25 ng/ml IGF-1 for 10 minutes at 37° C. in a 5% CO2 incubator. Following removal of the supernatants and washing with the wells with TBS (50 mM Tris pH 8.0 containing 138 mM NaCL and 27 mM KCl), 200 µL of 3.7% formaldehyde in TBS was added to each well, and the plate was incubated at 4° C. for 10 minutes. Supernatants were once again removed and replaced with 50 μL Methanol (-20° C.) and the plate incubated at 4° C. for 5 minutes. 200 μL of 0.1% BSA in TBS was then added to each well and the plate incubated at room temperature for 1⁄2 hour. Supernatants were removed and 50 μL of a solution comprising the primary anti-phospho-AKT([…]) antibody diluted 1:250 in TBS containing 0.1% BSA was added to each well (except control/background wells). The plate was then incubated for 11⁄2 hour at room temperature. Supernatants were removed, each well was washed 3 times with 200 μL TBS, and 100 μL of a solution containing the secondary donkey anti-rabbit IgG antibody HRP-conjugate diluted 1:100 in TBS-T (TBS containing 0.1% triton). Plates were then incubated for 1 hour at room temperature. After removing the secondary antibody, each well was washed 6 times with cold TBS-T, 100 μL of ECL was added to each well, and the plate was placed on an orbital shaker for 1 minute. The plates were then read on a Wallac Victor2 1420 Multilabel HTS Counter using the luminometry window (maximum light detection is measured at […]). IC50 values were determined from the inhibition curve.

| SMILES | IC50 [nM] |
| --- | --- |
| COc1c(OCCCN2CCOCC2)ccc2c1N=C(NC(=O)c1cnc(N)nc1)N1CCN=C21 [Example 13, 2-amino-N-[7-methoxy-8-(3-morpholin-4-ylpropoxy)-2,3-dihydroimidazo[1,2-c]quinazolin-5-yl]pyrimidine-5-carboxamide] | < 100 |

Same assay, conditions: Homo sapiens; A549 cells, 25 ng/ml IGF-1, phospho-AKT(Ser 473); read-out: average IC50 in the A549 cell assay

| SMILES | IC50 [nM] |
| --- | --- |
| COc1c(OCCCN2C[C@@H](C)O[C@@H](C)C2)ccc2c1N=C(NC(=O)c1sc(C)nc1C)N1CCN=C21 [Example 3, N-(8-{3-[(2R,6S)-2,6-dimethylmorpholin-4-yl]propoxy}-7-methoxy-2,3-dihydroimidazo[1,2-c]quinazolin-5-yl)-2,4-dimethyl-1,3-thiazole-5-carboxamide] | < 100 |
| COc1c(OCCCN2CCOCC2)ccc2c1N=C(NC(=O)c1sc(N)nc1C)N1CCN=C21 [Example 6, 2-amino-N-[7-methoxy-8-(3-morpholin-4-ylpropoxy)-2,3-dihydroimidazo[1,2-c]quinazolin-5-yl]-4-methyl-1,3-thiazole-5-carboxamide] | < 100 |
| CCCc1nc(N)ncc1C(=O)NC1=Nc2c(ccc(OCCCN3CCOCC3)c2OC)C2=NCCN12 [Example 7, 2-amino-N-[7-methoxy-8-(3-morpholin-4-ylpropoxy)-2,3-dihydroimidazo[1,2-c]quinazolin-5-yl]-4-propylpyrimidine-5-carboxamide] | < 100 |
| COc1c(OCCN(C)C)ccc2c1N=C(NC(=O)c1cncnc1)N1CCN=C21 [Example 9, N-{8-[2-(dimethylamino)ethoxy]-7-methoxy-2,3-dihydroimidazo[1,2-c]quinazolin-5-yl}pyrimidine-5-carboxamide] | 100 to 1000 |
| COc1c(OCCCN2CCOCC2)ccc2c1N=C(NC(=O)c1cnc(N)nc1C)N1CCN=C21 [Example 32, 2-amino-N-[7-methoxy-8-(3-morpholin-4-ylpropoxy)-2,3-dihydroimidazo[1,2-c]quinazolin-5-yl]-4-methylpyrimidine-5-carboxamide] | < 100 |
| COc1c(OCCCN(C)C)ccc2c1N=C(NC(=O)c1cnc(NCCN(C)C)nc1)N1CCN=C21 [Example 36, 2-{[2-(dimethylamino)ethyl]amino}-N-{8-[3-(dimethylamino)propoxy]-7-methoxy-2,3-dihydroimidazo[1,2-c]quinazolin-5-yl}pyrimidine-5-carboxamide] | 100 to 1000 |
| COc1c(OCCCN(C)C)ccc2c1N=C(NC(=O)c1cnc(N)s1)N1CCN=C21 [Example 37, 2-amino-N-{8-[3-(dimethylamino)propoxy]-7-methoxy-2,3-dihydroimidazo[1,2-c]quinazolin-5-yl}-1,3-thiazole-5-carboxamide] | < 100 |
| COc1c(OCCCN(C)C)ccc2c1N=C(NC(=O)c1cnc(N)nc1)N1CCN=C21 [Example 42, 2-amino-N-{8-[3-(dimethylamino)propoxy]-7-methoxy-2,3-dihydroimidazo[1,2-c]quinazolin-5-yl}pyrimidine-5-carboxamide] | < 100 |
| COc1c(OCCCN2CCOCC2)ccc2c1N=C(NC(=O)c1cnc(NCCN(C)C)nc1)N1CCN=C21 [Example 45, 2-{[2-(dimethylamino)ethyl]amino}-N-[7-methoxy-8-(3-morpholin-4-ylpropoxy)-2,3-dihydroimidazo[1,2-c]quinazolin-5-yl]pyrimidine-5-carboxamide] | 100 to 1000 |
| COc1c(OCCCN(C)C)ccc2c1N=C(NC(=O)c1ccc(N)nc1)N1CCN=C21 [Example 46, 6-amino-N-{8-[3-(dimethylamino)propoxy]-7-methoxy-2,3-dihydroimidazo[1,2-c]quinazolin-5-yl}nicotinamide] | < 100 |

Other lines, results leading:

| IC50 [nM] | SMILES |
| --- | --- |
| 100 to 1000 | COc1c(OCCCN2CCOCC2)ccc2c1N=C(NC(=O)c1cncnc1)N1CCN=C21 [Example 1, N-[7-methoxy-8-(3-morpholin-4-ylpropoxy)-2,3-dihydroimidazo[1,2-c]quinazolin-5-yl]pyrimidine-5-carboxamide] |
| < 100 | COc1c(OCCCN2C[C@@H](C)O[C@@H](C)C2)ccc2c1N=C(NC(=O)c1cccnc1)N1CCN=C21 [Example 2, N-(8-{3-[(2R,6S)-2,6-dimethylmorpholin-4-yl]propoxy}-7-methoxy-2,3-dihydroimidazo[1,2-c]quinazolin-5-yl)nicotinamide] |
| 100 to 1000 | COc1c(OCCCN2CCOCC2)ccc2c1N=C(NC(=O)c1cnc(N)s1)N1CCN=C21 [Example 4, 2-amino-N-[7-methoxy-8-(3-morpholin-4-ylpropoxy)-2,3-dihydroimidazo[1,2-c]quinazolin-5-yl]-1,3-thiazole-5-carboxamide] |
| 100 to 1000 | COc1c(OCCCN2CCOCC2)ccc2c1N=C(NC(=O)c1ccnc(N)c1)N1CCN=C21 [Example 5, 2-amino-N-[7-methoxy-8-(3-morpholin-4-ylpropoxy)-2,3-dihydroimidazo[1,2-c]quinazolin-5-yl]isonicotinamide] |
| < 100 | CCN1CCOC(CCOc2ccc3c(c2OC)N=C(NC(=O)c2cccnc2)N2CCN=C32)C1 (stereo not drawn) [Example 8, N-{8-[2-(4-ethylmorpholin-2-yl)ethoxy]-7-methoxy-2,3-dihydroimidazo[1,2-c]quinazolin-5-yl}nicotinamide] |
| < 100 | COc1c(OCC(O)CN2CCOCC2)ccc2c1N=C(NC(=O)c1cccnc1)N1CCN=C21 (stereo not drawn) [Example 16, N-[8-(2-hydroxy-3-morpholin-4-ylpropoxy)-7-methoxy-2,3-dihydroimidazo[1,2-c]quinazolin-5-yl]nicotinamide] |
| < 100 | COc1c(OCCCN2CCOC(CO)C2)ccc2c1N=C(NC(=O)c1cccnc1)N1CCN=C21 (stereo not drawn) [Example 18, N-(8-{3-[2-(hydroxymethyl)morpholin-4-yl]propoxy}-7-methoxy-2,3-dihydroimidazo[1,2-c]quinazolin-5-yl)nicotinamide] |
| < 100 | COCCN1CCOC(COc2ccc3c(c2OC)N=C(NC(=O)c2cccnc2)N2CCN=C32)C1 (stereo not drawn) [Example 22, N-(7-methoxy-8-{[4-(2-methoxyethyl)morpholin-2-yl]methoxy}-2,3-dihydroimidazo[1,2-c]quinazolin-5-yl)nicotinamide] |
| < 100 | COc1c(OCC2CN(C)CCO2)ccc2c1N=C(NC(=O)c1cccnc1)N1CCN=C21 (stereo not drawn) [Example 23, N-{7-methoxy-8-[(4-methylmorpholin-2-yl)methoxy]-2,3-dihydroimidazo[1,2-c]quinazolin-5-yl}nicotinamide] |
| 100 to 1000 | COc1c(OCCCN2CCOCC2)ccc2c1N=C(NC(=O)c1cncn1C)N1CCN=C21 [Example 30, N-[7-methoxy-8-(3-morpholin-4-ylpropoxy)-2,3-dihydroimidazo[1,2-c]quinazolin-5-yl]-1-methyl-1H-imidazole-5-carboxamide] |
| < 100 | COc1c(OCCCN2CCOCC2)ccc2c1N=C(NC(=O)c1ccc(N)nc1C)N1CCN=C21 [Example 31, 6-amino-N-[7-methoxy-8-(3-morpholin-4-ylpropoxy)-2,3-dihydroimidazo[1,2-c]quinazolin-5-yl]-2-methyl nicotinamide] |
| < 100 | COc1c(OCCCN2CCOCC2)ccc2c1N=C(NC(=O)c1cnc(N)c(Br)c1)N1CCN=C21 [Example 33, 6-amino-5-bromo-N-[7-methoxy-8-(3-morpholin-4-ylpropoxy)-2,3-dihydroimidazo[1,2-c]quinazolin-5-yl]nicotinamide] |
| 100 to 1000 | COc1c(OCCCN2CCOCC2)ccc2c1N=C(NC(=O)c1cnc(N)o1)N1CCN=C21 [Example 34, 2-amino-N-[7-methoxy-8-(3-morpholin-4-ylpropoxy)-2,3-dihydroimidazo[1,2-c]quinazolin-5-yl]-1,3-oxazole-5-carboxamide] |
| < 100 | COc1c(OCC2CNCCO2)ccc2c1N=C(NC(=O)c1cccnc1)N1CCN=C21 (stereo not drawn) [Example 35, N-[7-methoxy-8-(morpholin-2-ylmethoxy)-2,3-dihydroimidazo[1,2-c]quinazolin-5-yl]nicotinamide] |
| 100 to 1000 | COc1c(OCCCN2CCOCC2)ccc2c1N=C(NC(=O)c1cnc(NCCO)nc1)N1CCN=C21 [Example 40, 2-[(2-hydroxyethyl)amino]-N-[7-methoxy-8-(3-morpholin-4-ylpropoxy)-2,3-dihydroimidazo[1,2-c]quinazolin-5-yl]pyrimidine-5-carboxamide] |
| > 1000 | COCCNc1ncc(C(=O)NC2=Nc3c(ccc(OCCCN4CCOCC4)c3OC)C3=NCCN23)cn1 [Example 44, 2-[(2-methoxyethyl)amino]-N-[7-methoxy-8-(3-morpholin-4-ylpropoxy)-2,3-dihydroimidazo[1,2-c]quinazolin-5-yl]pyrimidine-5-carboxamide] |
